From patent US7572798B2, “Combi-molecules having signal transduction inhibitory properties and DNA damaging properties” (McGill University, priority 2001, dated 2009)
pIC50: −log10 of the molar value. Read-outs that look alike come from different tables or passages of the source.

Key:
[1] = target: T1, EGFR (Homo sapiens, UniProt P00533); experiment: EGFR TK ELISA with PGT substrate (competitive binding at the ATP site); assay type: biochemical; parameters: purchased BIOMOL (Plymouth Meeting); also a gift from Pfizer Inc
Procedure: The ability of the combi-molecules to block EGFR TK activity was determined by an ELISA assay using poly(L-glutamic acid-L-tyrosine, 4:1) PGT as a substrate and commercially available EGFR.
Nunc MaxiSorp 96-well plates were incubated overnight at 37° C. with 100μL per well of 0.25 mg/mL PGT in PBS. Excess PGT was removed and the plates were washed 3 times with Tween 20 (0.1%) in PBS. […] The compound was added and phosphorylation initiated by the addition of ATP (20 μM). After 8 min at room temperature with constant shaking, the reaction was terminated by the aspiration of the reaction mixture and by rinsing the plate 4 times with wash buffer (Tween 20 (0.1%) in PBS). […] Antibody was removed by aspiration, and the plates washed 4 times with wash buffer. The signals were developed by the addition of 50 μL per well of TMB peroxidase substrate (Kierkegaard and Perry Laboratories, Gaithersberg, Md.).
This assay is similar to the one previously described. Nunc MaxiSorp 96-well plates were incubated overnight at 37° C. with 100 μl/well of 25 ng/ml PGT in PBS. Excess PGT was removed and the plates were washed three times with wash buffer (Tween 20 (0.1%) in PBS). […] The compound was added and phosphorylation initiated by the addition of ATP (20 μM). After 8 min at room temperature with constant shaking, the reaction was terminated by aspirating the mixture and by rinsing the plates four times with wash buffer Tween 20 (0.1%) in PBS. […] Antibody was removed by aspiration, and the plate washed four times with wash buffer. The signals were developed by the addition of 50 μl/well of 3,3′,5,5′-tetramethylbenzidine (TMB) peroxidase substrate (Kierkegaard and Perry Laboratories, Gaithersberg, Md., USA).

[2] = target: T1, EGFR; experiment: Reverse EGFR autophosphorylation (reversibility) assay in A431 cells; assay type: cell-based; details: A431, 30 μM
Procedure: To test this hypothesis, the reversibility assay (40, 41) was used, according to which the cells are treated with the drug for 90 min after which the culture medium is repeatedly removed and replaced 3 times, followed by the measurement of EGFR autophosphorylation.
A431 cells were grown to confluence in 6-well plates and then incubated in serum-free medium for 18 h (41). Duplicate sets of cells were then treated with 30 μM of each compound for 90 min. One set of cells was then stimulated with EGF (100 ng/ml) for 10 min and extracts were made as described under the Western blotting procedure above. The other set of cells was washed free of each compound with warmed serum-free media and incubated for 2 h. Thereafter, the cells were washed, incubated for another 2 h, washed again, and then incubated for a further 4 h. This set of cells was then stimulated with EGF and extracts were prepared as for the first set.

[3] = target: T1, EGFR; experiment: EGF-induced EGFR autophosphorylation in A431 cells (Western blot)
Procedure: The inhibition of receptor autophosphorylation in viable cells was determined by anti-phosphotyrosine Western Blots. A431 cells were pre-incubated overnight for 24 h at 37° C. in a 6-well plate (1×10^6) with 0.1% serum, after which they were exposed to a range of doses for each drug for 2 h and subsequently treated with 50 ng/mL EGF for 30 min at 37° C. The cells were thereafter washed with PBS and re-suspended in cold lysis buffer [50 mM Tris-HCl pH 7.5; 150 mM NaCl; 1% NP40, 1 mM EDTA; 5 mM NaF; 1 mM Na3VO4; protease inhibitor tablet (Roche Biochemicals, Laval, Canada)]. The lysates were kept on ice for 30 min and collected by centrifugation at 10 000 rpm for 20 min at 4° C. The protein concentrations were determined against a standardized control using the Bio-Rad protein assay kit (Bio-Rad Laboratories, Hercules, Calif.). […] Non-specific binding on the PVDF membrane was minimized with a blocking buffer containing nonfat dry milk (3%) in PBS. The membrane was blotted with primary antibodies [either antiphosphotyrosine antibody (UBI, Lake Placid, N.Y.) for the detection of phosphotyrosine, or anti-EGFR (Neomarkers, Fremont, Calif.) for the determination of corresponding receptor levels], and anti-β-tubulin (Neomarkers, Fremont, Calif.) for the detection of equal loading. Thereafter, blots were incubated with HRP-goat anti-mouse antibody (1:200 dilution; Bio-Rad Laboratories, Hercules, Calif.) and the bands visualized with an enhanced chemiluminescence system (Amersham Pharmacia Biotech, Buckinghamshire, UK). Band intensities were measured using the SynGene GeneTools software package (Cambridge, UK).
The inhibition of receptor autophosphorylation in viable cells was determined by anti-phosphotyrosine Western Blots. […] Protein concentrations were determined against a standardized control using the Bio-Rad protein assay kit (Bio-Rad Laboratories, Hercules, Calif.). […] Band intensities were measured using the SynGene GeneTools software package (Cambridge, UK).

[4] = test system: A431 cells; experiment: SRB growth inhibition assay in A431 cells; assay type: cell-based, human; details: for pIC50: Homo sapiens
Procedure: All growth inhibitory activities were evaluated using the SRB assay (33). Briefly, following drug treatment, cells were fixed using 50 μL of cold trichloroacetic acid (50%) for 60 min at 4° C., washed five times with tap water, and stained for 30 min at room temperature with SRB (0.4%) dissolved in acetic acid (0.5%). The plates were rinsed five times with 1% acetic acid and allowed to air dry. The resulting colored residue was dissolved in 200 μL of Tris base (10 mM), and the optical density read for each well at 540 nm using a Bio-Rad microplate reader (model 2550). […]
Cell monolayers were continuously exposed to different concentrations of each drug for 72 h. Under short exposure, they were treated with each drug for 2 h and allowed to recover for 72 h in drug-free medium.
To study the reversibility of the antiproliferative effects of our compounds, cells were grown to 70% confluence in 96-well plates and subsequently washed twice with PBS, after which they were exposed to serum-free medium for 18 h. Under continuous exposure, the cells were exposed to different concentrations of each drug for 120 h. Under short exposure, they were exposed to each drug for 2 h, after which they were allowed to recover for 120 h in drug free medium. Growth inhibitory activities were evaluated using the SRB assay as described above.

[5] = target: T2, human c-src (Homo sapiens, UniProt P12931); experiment: c-src kinase ELISA; assay type: biochemical; details: 1-100 μM range
T2 construct: purchased Upstate NY; host or cells: Baculovirus expression
Procedure: Conditions for the c-src and insulin kinase assays were similar to those of the EGFR kinase assay, with the exception of the addition of 1 mM manganese chloride to the assay buffer, and a final ATP concentration of 100 μM. The reaction was terminated by the addition of 50 μl of a 250 mM solution of EDTA prior to aspiration.

[6] = Degradation in serum-containing cell culture medium (UV, HPLC); assay type: in vitro ADME; details: bovine, 37° C.
Procedure: Thereafter, proteins were precipitated by the addition of acetonitrile (3.5 ml) and the supernatant collected by centrifugation. […] The operating mode was isocratic and two solutions, “A” (50% acetonitrile) and “B” (50% water), were used with a 0.5 ml/min flow rate and a 5 μL injection volume. […] For the rapid quantitation of metabolite, a less polar acetonitrile-water (70:30) eluent was used.
The half-life was estimated by a one-phase exponential decay curve-fit method using the GraphPad software package (GraphPad Software, Inc., San Diego, Calif.).
The half-life of BJ2000 under physiological conditions was studied by UV-spectrophotometry. BJ2000 was dissolved in a minimum volume of DMSO, diluted with RPMI-1640 supplemented with 10% FBS, and absorbencies read at 340 nm in a UV cell maintained at 37° C. with a circulating water bath. The half-life was estimated by a one-phase exponential decay curve-fit method, using the GraphPad software package (GraphPad software, Inc., San Diego, Calif., USA).
Proteins were thereafter precipitated by the addition of acetonitrile (3.5 ml), and the supernatant collected by centrifugation. […] HPLC analyses were performed on a Hewlett Packard 1090 liquid chromatograph, using a Waters C4 15-μm 300×3.9-mm reverse phase column to characterize and quantitate the products resulting from the degradation of BJ2000. […] The peaks were detected at 250 nm.

[7] = test system: PDGFR; experiment: PDGF-induced PDGFR autophosphorylation in NIH3T3 cells (Western blot); assay type: cell-based, mouse; details: concentrations as high as 30 μM
Procedure: The inhibition of receptor autophosphorylation in viable cells was determined by anti-phosphotyrosine Western Blots. A431 and NIH3T3 cells were grown to confluence in 6-well plates, washed twice with PBS and exposed to serum-free medium for 18 h. They were subsequently treated with the compounds for 90 min and then with EGF (100 ng/ml) for 10 min (A431 cells), or with PDGF (100 ng/ml) for 10 min (NIH3T3 cells). They were thereafter washed with PBS and re-suspended in cold lysis buffer [50 mM Tris-HCl pH 7.5; 150 mM NaCl; 1% Nonidet P-40, 1 mM EDTA; 5 mM NaF; 1 mM Na3VO4; protease inhibitor tablet (Roche Biochemicals, Laval, Canada)]. The lysates were kept on ice for 30 min and collected by centrifugation at 10,000 rpm for 20 min at 4° C. Protein concentrations were determined against a standardized control using the Bio-Rad protein assay kit (Bio-Rad Laboratories, Hercules, Calif.). Equal amounts of protein (40 μg/mL) from each cell lysate were added to an 8% SDS-polyacrylamide gel electrophoresis (SDS-PAGE) and transferred to a polyvinylidene difluoride membrane (PVDF) (Millipore, Bedford, Mass.). Non-specific binding on the membrane was minimized with a blocking buffer containing non-fat dry milk (3%) in PBS. […] Band intensities were measured using the SynGene GeneTools software package (Cambridge, UK).

T1 sequence (P00533 25-1210): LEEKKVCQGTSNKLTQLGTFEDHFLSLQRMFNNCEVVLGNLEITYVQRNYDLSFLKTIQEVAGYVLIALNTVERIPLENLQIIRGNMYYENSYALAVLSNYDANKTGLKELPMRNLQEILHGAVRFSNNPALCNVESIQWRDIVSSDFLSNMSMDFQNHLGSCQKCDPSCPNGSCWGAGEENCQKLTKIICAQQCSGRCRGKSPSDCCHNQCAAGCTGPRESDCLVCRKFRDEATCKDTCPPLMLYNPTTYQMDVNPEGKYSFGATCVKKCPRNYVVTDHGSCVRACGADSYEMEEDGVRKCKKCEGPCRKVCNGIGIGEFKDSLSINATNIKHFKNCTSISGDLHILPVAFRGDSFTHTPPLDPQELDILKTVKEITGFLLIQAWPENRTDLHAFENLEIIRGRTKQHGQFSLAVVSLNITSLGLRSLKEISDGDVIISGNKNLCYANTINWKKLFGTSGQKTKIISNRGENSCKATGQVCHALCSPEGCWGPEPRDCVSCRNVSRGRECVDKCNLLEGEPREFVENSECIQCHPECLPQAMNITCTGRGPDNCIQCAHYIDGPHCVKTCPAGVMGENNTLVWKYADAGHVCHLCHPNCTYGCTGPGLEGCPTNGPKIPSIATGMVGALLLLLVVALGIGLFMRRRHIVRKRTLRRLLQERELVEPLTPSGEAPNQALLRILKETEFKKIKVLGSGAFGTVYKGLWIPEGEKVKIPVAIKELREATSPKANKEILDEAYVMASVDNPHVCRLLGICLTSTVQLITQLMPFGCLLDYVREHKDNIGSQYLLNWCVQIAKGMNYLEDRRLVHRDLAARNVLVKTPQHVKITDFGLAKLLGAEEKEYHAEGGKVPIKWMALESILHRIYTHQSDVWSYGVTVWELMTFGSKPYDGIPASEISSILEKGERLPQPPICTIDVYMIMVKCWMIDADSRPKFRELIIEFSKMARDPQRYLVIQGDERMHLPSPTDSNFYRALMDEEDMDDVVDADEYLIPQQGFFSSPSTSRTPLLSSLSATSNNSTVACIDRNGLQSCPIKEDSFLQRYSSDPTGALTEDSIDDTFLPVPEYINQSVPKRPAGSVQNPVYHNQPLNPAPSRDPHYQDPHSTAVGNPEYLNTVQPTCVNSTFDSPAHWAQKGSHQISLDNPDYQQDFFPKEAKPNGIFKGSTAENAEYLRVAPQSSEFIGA
T2 sequence (P12931 whole entry): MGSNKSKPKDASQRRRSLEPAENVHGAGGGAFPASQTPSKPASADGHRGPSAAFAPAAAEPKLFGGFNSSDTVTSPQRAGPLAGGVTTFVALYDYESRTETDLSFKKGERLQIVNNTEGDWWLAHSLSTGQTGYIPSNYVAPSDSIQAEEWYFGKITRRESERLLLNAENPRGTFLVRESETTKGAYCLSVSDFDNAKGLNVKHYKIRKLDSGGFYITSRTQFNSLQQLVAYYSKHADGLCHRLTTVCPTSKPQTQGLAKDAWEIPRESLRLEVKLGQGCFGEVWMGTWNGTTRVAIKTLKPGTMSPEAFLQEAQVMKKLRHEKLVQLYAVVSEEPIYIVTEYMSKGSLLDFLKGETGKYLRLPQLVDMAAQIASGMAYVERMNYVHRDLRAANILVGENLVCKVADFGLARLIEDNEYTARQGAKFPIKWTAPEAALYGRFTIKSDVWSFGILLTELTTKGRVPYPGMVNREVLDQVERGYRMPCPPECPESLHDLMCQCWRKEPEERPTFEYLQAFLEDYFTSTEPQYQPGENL

CNN=Nc1ccc2ncnc(Nc3cccc(Cl)c3)c2c1 [BJ2000]
fold stronger affinity than SMA41 [1]: 2 fold
pIC50 ([1]; ELISA, PGT substrate, purified EGFR, ATP 20 μM, 8 min, read-out: IC50, inhibition of EGFR TK (competitive binding at ATP site)): 7.00
fold greater EGFR binding affinity than metabolite FD105 ([1]; purified EGFR, ATP site): 2 fold
EGF-dependent EGFR autophosphorylation immediately after drug exposure ([2]; 90 min): completely suppressed
EGFR autophosphorylation activity restored ([2]; 8 h post-treatment in drug-free medium after repeated washouts): 40%
pIC50 [3]: ~5.22
fold more potent than metabolite FD105 ([4]; 120 h continuous, SRB, A431): ≈ 3 fold
pIC50 ([4]; A-431, 120 h, read-out: IC50 growth inhibition): 4.82
pIC50 ([4]; A-431, read-out: IC50 growth inhibition): 4.42
effect on c-src TK activity [5]: did not block c-src TK activity
half-life ([6]; serum-containing cell culture medium (RPMI with 10% serum), RPMI with 10% serum, read-out: half-life (t1/2) by UV spectrophotometry at 340 nm): 34 min
half-life at 625 µM ([6]; RPMI-1640 with 10% FBS, read-out: half-life (t1/2) by HPLC analysis): 75 min
effect on PDGF-induced PDGFR autophosphorylation [7]: no effect
